{"source": "paper PMC6838683", "about": "“Discovery of Human Signaling Systems: Pairing Peptides to G Protein-Coupled Receptors” (Cell, 2019)", "assay_type_in_all_cases": "cell-based", "key": {"GPR68": {"molecular_target": "GPR68 (Homo sapiens, UniProt Q15743)", "sequence (Q15743 whole entry)": "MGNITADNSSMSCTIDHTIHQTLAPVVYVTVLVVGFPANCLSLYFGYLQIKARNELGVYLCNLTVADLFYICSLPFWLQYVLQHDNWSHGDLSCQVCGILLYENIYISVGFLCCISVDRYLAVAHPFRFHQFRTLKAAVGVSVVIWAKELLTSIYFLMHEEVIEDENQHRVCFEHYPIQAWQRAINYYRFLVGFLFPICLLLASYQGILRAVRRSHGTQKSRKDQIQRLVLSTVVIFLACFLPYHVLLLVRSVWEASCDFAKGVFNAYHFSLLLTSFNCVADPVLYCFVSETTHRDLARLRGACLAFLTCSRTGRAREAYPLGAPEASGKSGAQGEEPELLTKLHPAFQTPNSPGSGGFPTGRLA", "experiment": "GloSensor cAMP assay (Gs), allosteric operational model fitting", "set-up": "expressed in transfected cells; host or cells: HEK293T, transient (PEI), co-transfected with GloSensor cAMP plasmid", "details": "for Log(ab/KB): allosteric operational model parameter, GPR68 GloSensor cAMP", "method": "GPR68-mediated cAMP signaling was measured using GloSensor cAMP assays as published previously ([Huang et al., 2015], [Yu et al., 2019]) with modifications as indicated below. Calcium- and magnesium-free HBSS was supplemented with different organic buffer reagents for different pH solutions, 20 mM 2-(N-morpholino)ethanesulfonic acid (MES, Alfa Aesar) for pH 6.00 – 6.70, 20 mM 4-(2-hydroxyethyl)-1-piperazineethanesulfonic acid (HEPES, Fisher) for pH 6.80 – 8.20, and 20 mM (tris(hydroxymethyl)methylamino)propanesulfonic acid (TAPS) for pH 8.30 – 8.60. The phosphodiesterase (PDE) inhibitor Ro 20-1724 (10 μM final, Cayman Chemical) was included in pH buffers to eliminate potential effect of PDE […]. HEK293T cells were transfected with a modified polyethylenimine (PEI, Polysciences) transfection method ([Longo et al., 2013]). For a 15-cm dish of HEK293T cells with 25 mL growth medium, 8 μg receptor DNA and 8 μg GloSensor DNA (Promega) were mixed in 1 mL of Opti-MEM medium followed by addition of 80 μL PEI reagents. The mixture was added to cells after 20 min incubation at room temperature. Overnight transfected cells were plated in poly-L-lysine (Sigma) coated 384-well white clear bottom plates (Greiner Bio-One, #781098) using DMEM (Corning) + 1% dialyzed FBS (Omega Scientific) for at least 6 h (up to 24 h). Cells were removed of medium before receiving 20 μL/well of 3.5 mM luciferin (Goldbio) prepared in assay buffer (HBSS, 20 mM TAPS, pH 8.40, 10 μM Ro 20-1724) for 1 h at 37°C. Luciferin loading solutions were removed and premixed drug solutions at desired pH conditions were added to cells (25 μL/well). Luminescence was measured 25-30 min after drug application. Results were normalized (basal and maximum responses in the absence of modulator were set to be 0 and 100%) and pooled for analysis using GraphPad Prism.\nAll of the other parameters, including allosteric affinity cooperativity (α), allosteric modulator binding affinity KB, orthosteric agonist (protons) efficacy τA, system maximal response, and slope factor n were all globally shared for all datasets for each modulator. […] We therefore used an allosteric index, log(αβ/KB) ([Kenakin, 2017a]), which contains both allosteric binding affinity and cooperativity, to quantify the overall allosteric activity."}, "GPR55 [1]": {"molecular_target": "T1, GPR55 (Homo sapiens, UniProt Q9Y2T6)", "T1 sequence (Q9Y2T6 2-319 limits assumed)": "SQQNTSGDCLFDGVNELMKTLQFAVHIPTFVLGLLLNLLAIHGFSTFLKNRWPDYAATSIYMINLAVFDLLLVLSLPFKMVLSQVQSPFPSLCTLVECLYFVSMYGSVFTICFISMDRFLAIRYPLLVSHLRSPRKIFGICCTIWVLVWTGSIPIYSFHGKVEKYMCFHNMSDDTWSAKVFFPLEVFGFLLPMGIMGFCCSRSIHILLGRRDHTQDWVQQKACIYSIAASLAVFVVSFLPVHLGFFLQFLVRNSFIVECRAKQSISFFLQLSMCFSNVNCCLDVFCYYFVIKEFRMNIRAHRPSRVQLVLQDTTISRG", "experiment": "Dynamic mass redistribution (DMR), concentration-response", "set-up": "hIL-2Ra signal peptide (N); expressed in transfected cells", "details": "receptor GPR55, mean; for DMR assays Emax (peak or AUC): SEM and n (1-4); for EC50: SEM and n (2-4), read-out: DMR assays pEC50 (converted)", "method": "(§1) 48 hr prior to parallel assaying, SNAP-tagged oGPCR cells were plated (10,000 cells/well) in fibronectin-coated 384-well Epic biosensor microplates (Corning) and poly-D-lysine coated white 384-well plates (for internalization assays). SNAP- GLP-1 receptor was plated alongside orphan receptor cells as an internal assay control for internalization assays. Receptor-expression was induced with 0.1 μg/ml doxycycline.\nDMR assays provide a single integrated readout of ligand-dependent cellular response, utilizing an optical biosensor in specialized microplates to detect wavelength shifts of reflected light as it passes through the biosensor and the lower portion of the cell (∼150-200 nm). As a signal pathway agnostic approach, DMR assays are well-suited to the study of GPCRs ([Fang et al., 2008], [Schröder et al., 2011]). The mass redistribution response (Δ picometer (pm)) likely reflects a number of intracellular events, including cytoskeletal rearrangement, protein trafficking and receptor internalization. Orphan receptor-expressing cells were gently washed twice with assay buffer (HBSS with 1 mM CaCl2, 1 mM MgCl2, 20 mM HEPES, 0.01% pluronic F-68, pH 7.4) containing 0.1% DMSO and cells were equilibrated for 90 min at 22°C in the EPIC Benchtop (BT) System (Corning) to establish a stable DMR signal. After 3-5 min baseline recordings, peptides (10 μM) were added in duplicate wells using an electronic 384-channel Viaflo pipette (Integra Biosciences, Switzerland) and DMR responses were measured for 60 min at 22°C. 100 nM norepinephrine was included as an internal assay control to assess the cellular DMR response via endogenously-expressed adrenoceptors in the TREx 293 cells. Real-time data were processed using the BT to column converter MS-Excel macro (Corning) and analyzed in GraphPad Prism 7.0. DMR recordings in peptide screening experiments were buffer and solvent corrected and the area under the curve (AUC) was quantified. For subsequent validation experiments, peptides were diluted in assay buffer containing 0.1% DMSO and DMR assays were performed as above. […] Data represent mean ± standard error of the mean (SEM) from at least 3 biologically independent experiments."}, "GPR55 [2]": {"molecular_target": "T1, GPR55", "experiment": "Real-time receptor internalization (TR-FRET), concentration-response", "set-up": "hIL-2Ra signal peptide (N); expressed in transfected cells", "details": "receptor GPR55, mean, SEM and n (3-4); for EC50: read-out: Internalization assays pEC50 (converted)", "method": "as §1\nA TR-FRET real-time internalization assay was used to examine peptide-dependent changes in orphan receptor localization as described previously ([Foster and Bräuner-Osborne, 2018]). Surface-expressed SNAP-tagged receptors were labeled with a cell-impermeable luminescent terbium cryptate (100 nM SNAP Lumi4-Tb; Cisbio, France) for 1 hr at 37°C. Cells were washed to remove excess terbium and incubated with fluorescein-O-acetic acid (100 μM; Sigma Aldrich) for 5 min at 37°C. Peptides were added as for DMR assays, and internalization responses were recorded for 60 min at 37°C using an EnVision 2104 Multimode plate reader (PerkinElmer). 100 nM GLP-1 was used as a positive control for SNAP-GLP1R internalization. Real-time internalization responses were calculated based on TR-FRET (excitation 340 nm; emission 520 nm and 615 nm), and were expressed as the ratio between donor (terbium) and acceptor (fluorescein) emission. For peptide screening analysis (both DMR and internalization assays), we calculated the area under the curve from the real-time traces. […] Validation experiments for receptor internalization were performed as above. Internalization data was processed in MS-Excel and area under the curve was used to generate concentration-response curves using GraphPad Prism 7.0. Data represent mean ± standard error of the mean (SEM) from at least 3 biologically independent experiments."}}, "note": "Residues, ends and D or L forms follow the SMILES beside them.", "data": [{"molecule": "Nc1nc(NCc2ccccc2)nc(-c2ccccc2CO)n1", "note": "[Ogerin]", "values": [{"measurement": "Log(ab/KB)", "setting": "GPR68; replicate 1", "result": 5.25}, {"measurement": "Log(ab/KB)", "setting": "GPR68; replicate 2", "result": 5.23}, {"measurement": "Log(ab/KB)", "setting": "GPR68; replicate 3", "result": 5.25}]}, {"molecule": "CC[C@H](C)[C@H](NC(=O)[C@H](CCCNC(=N)N)NC(=O)[C@H](C)NC(=O)CNC(=O)[C@H](CCCCN)NC(=O)[C@H](CCCNC(=N)N)NC(=O)[C@@H](NC(=O)[C@H](C)NC(=O)[C@H](CS)NC(=O)[C@H](CCC(N)=O)NC(=O)[C@H](CCC(=O)O)NC(=O)CNC(=O)[C@H](C)NC(=O)[C@H](CC(=O)O)NC(=O)[C@H](CS)NC(=O)[C@H](CCSC)NC(=O)[C@@H]1CCCN1C(=O)[C@@H](NC(=O)[C@H](CCC(N)=O)NC(=O)CNC(=O)[C@@H](N)Cc1ccc(O)cc1)C(C)C)C(C)C)C(=O)O", "note": "[Pepetide 139] (H-YGQVPMCDAGEQCAVRKGARI-OH; N-terminus assumed)", "values": [{"measurement": "Log(ab/KB)", "setting": "GPR68; replicate 1", "result": 5.24}, {"measurement": "Log(ab/KB)", "setting": "GPR68; replicate 2", "result": 5.36}, {"measurement": "Log(ab/KB)", "setting": "GPR68; replicate 3", "result": 5.40}, {"measurement": "Log(ab/KB)", "setting": "GPR68; replicate 4", "result": 5.40}, {"measurement": "Fold difference", "setting": "GPR68; fold difference of ab/KB relative to Ogerin", "result": 1.28}]}, {"molecule": "CC[C@H](C)[C@H](NC(=O)CNC(=O)[C@H](CC(=O)O)NC(=O)[C@H](CO)NC(=O)[C@@H](N)Cc1c[nH]cn1)C(=O)N[C@@H](Cc1ccccc1)C(=O)N[C@H](C(=O)N[C@@H](CC(=O)O)C(=O)N[C@@H](CO)C(=O)N[C@@H](Cc1ccc(O)cc1)C(=O)N[C@@H](CO)C(=O)N[C@@H](CCCNC(=N)N)C(=O)N[C@@H](Cc1ccc(O)cc1)C(=O)N[C@@H](CCCNC(=N)N)C(=O)N[C@@H](CCCCN)C(=O)N[C@@H](CCC(N)=O)C(=O)N[C@@H](CCSC)C(=O)N[C@@H](C)C(=O)N[C@H](C(=O)O)C(C)C)[C@@H](C)O", "note": "[Peptide 168.5]", "values": [{"measurement": "DMR assays Emax (peak or AUC)", "setting": "GPR55 [1]", "result": 31768}, {"measurement": "EC50", "setting": "GPR55 [1]", "result": 1, "unit": "nM"}, {"measurement": "Internalization assays Emax (AUC)", "setting": "GPR55 [2]", "result": 17.8}, {"measurement": "EC50", "setting": "GPR55 [2]", "result": 75900, "unit": "nM"}]}, {"molecule": "CC[C@H](C)[C@H](NC(=O)CNC(=O)[C@H](CC(=O)O)NC(=O)[C@H](CO)NC(=O)[C@@H](N)Cc1c[nH]cn1)C(=O)N[C@@H](Cc1ccccc1)C(=O)N[C@H](C(=O)N[C@@H](CC(=O)O)C(=O)N[C@@H](CO)C(=O)N[C@@H](Cc1ccc(O)cc1)C(=O)N[C@@H](CO)C(=O)N[C@@H](CCCNC(=N)N)C(=O)N[C@@H](Cc1ccc(O)cc1)C(=O)N[C@@H](CCCNC(=N)N)C(=O)N[C@@H](CCCCN)C(=O)N[C@@H](CCC(N)=O)C(=O)N[C@@H](CCSC)C(=O)N[C@@H](C)C(=O)N[C@H](C(=O)N[C@@H](CCCCN)C(=O)N[C@@H](CCCCN)C(=O)N[C@@H](Cc1ccc(O)cc1)C(=O)N[C@@H](CC(C)C)C(=O)N[C@@H](C)C(=O)N[C@@H](C)C(=O)N[C@H](C(=O)N[C@@H](CC(C)C)C(=O)NCC(=O)N[C@@H](CCCCN)C(=O)N[C@@H](CCCNC(=N)N)C(=O)N[C@@H](Cc1ccc(O)cc1)C(=O)N[C@@H](CCCCN)C(=O)N[C@@H](CCC(N)=O)C(=O)N[C@@H](CCCNC(=N)N)C(=O)N[C@H](C(=O)N[C@@H](CCCCN)C(=O)N[C@@H](CC(N)=O)C(=O)N[C@@H](CCCCN)C(=O)NCC(=O)N[C@@H](CCCNC(=N)N)C(=O)N[C@@H](CCCNC(=N)N)C(=O)N[C@H](C(=O)N[C@@H](C)C(=O)N[C@@H](Cc1ccc(O)cc1)C(=O)N[C@@H](CC(C)C)C(=O)O)[C@@H](C)CC)C(C)C)C(C)C)C(C)C)[C@@H](C)O", "note": "[Peptide 168.6]", "values": [{"measurement": "EC50", "setting": "GPR55 [1]", "result": 331, "unit": "nM"}, {"measurement": "EC50", "setting": "GPR55 [2]", "result": 0.115, "unit": "nM"}]}, {"molecule": "CC(C)C[C@H](NC(=O)[C@@H](N)CC(=O)O)C(=O)N[C@@H](CC(C)C)C(=O)N1CCC[C@H]1C(=O)O", "note": "[Peptide 213.1] (H-DLLP-OH)", "values": [{"measurement": "EC50", "setting": "GPR55 [1]", "result": 0.00724, "unit": "nM"}, {"measurement": "EC50", "setting": "GPR55 [2]", "result": 195, "unit": "nM"}]}, {"molecule": "C[C@H](NC(=O)[C@@H](N)Cc1c[nH]c2ccccc12)C(=O)N[C@@H](CCCNC(=N)N)C(=O)NCC(=O)N[C@@H](CS)C(=O)N[C@@H](CO)C(=O)N[C@H](C(=O)NCC(=O)N[C@@H](CC(N)=O)C(=O)O)[C@@H](C)O", "note": "[Peptide 213.2] (H-WARGCSTGN-OH)", "values": [{"measurement": "EC50", "setting": "GPR55 [1]", "result": 0.0676, "unit": "nM"}, {"measurement": "EC50", "setting": "GPR55 [2]", "result": 0.724, "unit": "nM"}]}, {"molecule": "DLLPPRTPPYQVHISHREARGPSFRICVDFLG [Peptide 213.5]", "values": [{"measurement": "DMR assays Emax (peak or AUC)", "setting": "GPR55 [1]", "result": -71711}, {"measurement": "Internalization assays Emax (AUC)", "setting": "GPR55 [2]", "result": 19.6}]}, {"molecule": "HSDGIFTDSYSRYRKQMAVKKYLAAVL [168 original]", "values": [{"measurement": "DMR assays Emax (peak or AUC)", "setting": "GPR55 [1]", "result": 312490}, {"measurement": "Internalization assays Emax (AUC)", "setting": "GPR55 [2]", "result": 32.4}]}, {"molecule": "KRLGALFNPYFDPLQWKNSDFE [143 original]", "values": [{"measurement": "DMR assays Emax (peak or AUC)", "setting": "GPR55 [1]", "result": 555860}, {"measurement": "Internalization assays Emax (AUC)", "setting": "GPR55 [2]", "result": 39.5}]}, {"molecule": "KRYSRLDYLINGIYVDI [114 original]", "values": [{"measurement": "DMR assays Emax (peak or AUC)", "setting": "GPR55 [1]", "result": 619843}, {"measurement": "Internalization assays Emax (AUC)", "setting": "GPR55 [2]", "result": 46.9}]}]}
